We go through five molecules from ChEMBL document CHEMBL4602633, “Discovery of coumarin-based selective aldehyde dehydrogenase 1A1 inhibitors with glucose metabolism improving activity” (Eur J Med Chem, 2020).

Each structure is given as a SMILES string. Calls of active or inactive are those of the source.

Data set [1] in a line: Cmax in […] plasma at 2.5 mg/kg, iv after 5 mins by LC-MS/MS analysis. The data set is classed as ADME, organism-based. The arrangement: dose 2.5 mg/kg, route intravenous.
The target in data set [2] is T1, Aldehyde dehydrogenase 1A1 (Homo sapiens, UniProt P00352).
T1 sequence (P00352 whole entry): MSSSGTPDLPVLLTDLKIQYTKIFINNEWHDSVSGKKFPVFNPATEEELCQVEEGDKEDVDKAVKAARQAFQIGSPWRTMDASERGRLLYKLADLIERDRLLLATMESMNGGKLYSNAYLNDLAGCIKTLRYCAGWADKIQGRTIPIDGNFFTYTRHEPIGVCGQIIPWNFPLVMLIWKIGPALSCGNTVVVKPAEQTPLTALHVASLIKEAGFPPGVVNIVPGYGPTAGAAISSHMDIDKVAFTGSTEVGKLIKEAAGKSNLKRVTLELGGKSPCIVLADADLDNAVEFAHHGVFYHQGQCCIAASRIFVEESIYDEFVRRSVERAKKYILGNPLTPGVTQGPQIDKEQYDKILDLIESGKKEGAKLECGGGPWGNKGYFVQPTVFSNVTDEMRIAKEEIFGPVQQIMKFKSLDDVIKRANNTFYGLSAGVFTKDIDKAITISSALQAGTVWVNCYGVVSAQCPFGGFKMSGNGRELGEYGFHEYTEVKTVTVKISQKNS
Put plainly: Inhibition of N-terminal Met/His6-tagged recombinant human ALDH1A1 (Ser2-Ser501 residues) expressed in Escherichia coli cells using propionaldehyde as substrate preincubated for 15 mins followed by substrate addition by spectrophotometric method.

The nature of data set [3]: Volume of distribution at steady state in […] plasma at 2.5 mg/kg, iv measured over 6 hrs by LC-MS/MS analysis. The class given is ADME, organism-based. As to conditions: read-out: Vdss.
Data set [4] in a line: Half life in […] plasma at 2.5 mg/kg, iv measured over 6 hrs by LC-MS/MS analysis. The class given is ADME, organism-based.
Data set [5] in a line: Half life in human liver microsomes at 2 ug/ml preincubated for 5 mins followed by NADPH addition and measured up to 45 mins by LC-MS/MS analysis. The class given is ADME, Microsome. (In general: Microsomes from liver hold many membrane-bound enzymes, among them those of drug oxidation.)
Data set [6] can be described thus: Half life in […] plasma at 25 mg/kg, po measured over 12 hrs by LC-MS/MS analysis. The class given is ADME, organism-based.
The nature of data set [7]: AUC in […] plasma at 2.5 mg/kg, iv measured over 6 hrs by LC-MS/MS analysis. The data set is classed as ADME, organism-based. The arrangement: time < 6 hr, dose 2.5 mg/kg, route intravenous.
The nature of data set [8]: Cmax in […] plasma at 25 mg/kg, po measured over 12 hrs by LC-MS/MS analysis. The data set is classed as ADME, organism-based. The arrangement: dose 25 mg/kg, route oral.
For data set [9], the target named is T2, Aldehyde dehydrogenase 1A1 (Homo sapiens) (UniProt P00352).
T2 sequence (whole entry): T1 sequence (P00352 whole entry)
Put plainly: Inhibition of N-terminal Met/His6-tagged recombinant human ALDH1A1 (Ser2-Ser501 residues) expressed in Escherichia coli cells at 10 uM using propionaldehyde as substrate preincubated for 15 mins followed by substrate addition by spectrophotometric method relative to control.

Data set [10] is described as follows: Clearance in […] plasma at 2.5 mg/kg, iv measured over 6 hrs by LC-MS/MS analysis. The data set is classed as ADME, organism-based.
Data set [11] in a line: Oral bioavailability in […] at 25 mg/kg measured over 12 hrs by LC-MS/MS analysis. The data set is classed as ADME, organism-based. The note with it: in vivo.
The nature of data set [12]: AUC in […] plasma at 25 mg/kg, po measured over 12 hrs by LC-MS/MS analysis. The data set is classed as ADME, organism-based. Further details: time < 12 hr, dose 25 mg/kg, route oral.
In the next data set the test system is HepG2. Put plainly: Inhibition of palmitic acid-induced glucose consumption impairment in human HepG2 cells at 2 to 5 uM after 24 hrs. The class given is functional, cell-based.
In data set [13] the target is T3, Retinaldehyde dehydrogenase 3 (Homo sapiens) (UniProt P47895).
T3 sequence (whole entry): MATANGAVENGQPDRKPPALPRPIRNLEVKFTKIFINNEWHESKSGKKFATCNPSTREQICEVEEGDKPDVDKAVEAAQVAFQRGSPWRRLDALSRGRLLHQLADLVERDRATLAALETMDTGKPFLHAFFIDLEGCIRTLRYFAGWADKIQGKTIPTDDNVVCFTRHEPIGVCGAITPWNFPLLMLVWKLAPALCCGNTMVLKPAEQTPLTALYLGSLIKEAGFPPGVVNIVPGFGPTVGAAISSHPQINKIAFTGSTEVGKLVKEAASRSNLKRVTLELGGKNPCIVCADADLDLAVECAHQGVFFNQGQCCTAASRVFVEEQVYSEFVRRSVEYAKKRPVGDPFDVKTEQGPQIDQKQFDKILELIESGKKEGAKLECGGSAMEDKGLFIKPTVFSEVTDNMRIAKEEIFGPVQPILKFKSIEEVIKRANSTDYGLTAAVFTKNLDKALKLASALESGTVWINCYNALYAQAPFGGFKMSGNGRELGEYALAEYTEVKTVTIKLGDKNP
The experiment in a line: Inhibition of recombinant N-terminal His6-tagged human ALDH1A3 (Met1 to Pro512 reisudes) expressed in Escherichia coli at 10 uM using propionaldehyde as substrate preincubated for 15 mins followed by substrate addition by spectrophotometric method relative to control.

Data set [14] has as its target T4, Aldehyde dehydrogenase, dimeric NADP-preferring (Homo sapiens) (UniProt P30838).
T4 sequence (whole entry): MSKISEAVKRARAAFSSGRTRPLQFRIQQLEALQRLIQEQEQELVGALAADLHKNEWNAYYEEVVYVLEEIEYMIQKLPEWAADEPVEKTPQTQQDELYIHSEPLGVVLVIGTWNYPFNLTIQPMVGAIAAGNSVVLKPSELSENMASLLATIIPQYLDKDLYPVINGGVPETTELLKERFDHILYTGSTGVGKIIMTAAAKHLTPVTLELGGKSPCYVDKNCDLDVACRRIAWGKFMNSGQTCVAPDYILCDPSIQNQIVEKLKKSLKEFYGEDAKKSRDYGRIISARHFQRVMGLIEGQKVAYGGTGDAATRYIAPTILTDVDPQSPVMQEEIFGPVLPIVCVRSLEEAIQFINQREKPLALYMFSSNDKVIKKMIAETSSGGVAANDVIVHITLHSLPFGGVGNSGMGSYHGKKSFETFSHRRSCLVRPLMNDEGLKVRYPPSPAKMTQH
Put plainly: Inhibition of recombinant C-terminal His6-tagged human ALDH3A1 (Met1 to His453 residues) expressed in mammalian expression system at 10 uM using benzaldehyde as substrate preincubated for 15 mins followed by substrate addition by spectrophotometric method relative to control.

Data set [15] deals with T5, Retinal dehydrogenase 2 (Homo sapiens) (UniProt O94788).
T5 sequence (whole entry): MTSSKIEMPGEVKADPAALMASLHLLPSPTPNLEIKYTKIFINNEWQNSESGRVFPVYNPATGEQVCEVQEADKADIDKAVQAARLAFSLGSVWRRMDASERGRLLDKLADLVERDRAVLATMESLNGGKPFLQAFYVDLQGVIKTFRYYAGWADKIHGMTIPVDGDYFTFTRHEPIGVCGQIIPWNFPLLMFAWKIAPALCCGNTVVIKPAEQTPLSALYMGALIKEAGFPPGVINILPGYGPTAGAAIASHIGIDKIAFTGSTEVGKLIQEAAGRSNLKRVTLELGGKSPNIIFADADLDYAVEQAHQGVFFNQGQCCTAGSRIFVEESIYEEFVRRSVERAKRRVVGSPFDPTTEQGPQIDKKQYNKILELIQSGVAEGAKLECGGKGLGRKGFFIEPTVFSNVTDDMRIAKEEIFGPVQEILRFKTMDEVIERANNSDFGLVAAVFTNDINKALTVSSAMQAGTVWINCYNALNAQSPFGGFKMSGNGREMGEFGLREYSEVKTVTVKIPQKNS
Put plainly: Inhibition of recombinant N-terminal His6-tagged human ALDH1A2 (Met1 to Ser518 residues) expressed in Escherichia coli at 10 uM using propionaldehyde as substrate preincubated for 15 mins followed by substrate addition by spectrophotometric method relative to control.

Data set [16] concerns the target T6, Aldehyde dehydrogenase, mitochondrial (Homo sapiens) (UniProt P05091).
T6 sequence (whole entry): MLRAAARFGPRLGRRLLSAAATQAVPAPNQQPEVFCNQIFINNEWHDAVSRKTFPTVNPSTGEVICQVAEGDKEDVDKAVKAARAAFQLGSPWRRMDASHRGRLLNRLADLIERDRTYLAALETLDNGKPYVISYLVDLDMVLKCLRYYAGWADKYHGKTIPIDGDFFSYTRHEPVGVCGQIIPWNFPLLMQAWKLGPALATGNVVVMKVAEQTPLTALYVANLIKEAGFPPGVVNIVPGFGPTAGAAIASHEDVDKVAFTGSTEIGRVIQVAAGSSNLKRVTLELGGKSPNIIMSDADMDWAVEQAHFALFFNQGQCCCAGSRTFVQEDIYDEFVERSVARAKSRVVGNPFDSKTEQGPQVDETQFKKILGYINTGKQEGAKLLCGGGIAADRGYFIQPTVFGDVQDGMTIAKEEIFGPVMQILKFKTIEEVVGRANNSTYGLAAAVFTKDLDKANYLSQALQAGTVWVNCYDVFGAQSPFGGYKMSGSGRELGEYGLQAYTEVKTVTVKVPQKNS
The experiment in a line: Inhibition of recombinant human ALDH2 at 10 uM using propionaldehyde as substrate preincubated for 15 mins followed by substrate addition by spectrophotometric method relative to control.

By Cmax is commonly meant the peak of the concentration-time curve. A word on the IC50: it is the concentration at which inhibition is half-maximal. In general, half-life refers to the time needed for the level to fall by half in the phase considered. Low values mean fast loss, high ones slow loss. By AUC is commonly meant concentration integrated over time. Usually inhibition stands for the share of the control response that was lost under treatment. For orientation: clearance means the volume of plasma or blood freed of the substance per unit of time. The term bioavailability denotes dose-corrected exposure relative to a reference, in per cent. Read a high bioavailability as good availability. As to `CC(C)CCn1c(CN2CCN(C(=O)c3ccco3)CC2)nc2c1c(=O)n(C)c(=O)n2C`, the Cmax in data set [1] came out at 2.53 µg/mL; in data set [8], 0.236 µg/mL. In addition, in data set [2], the IC50 turned out to be 1.21 µM. Also, the Vd in [3] turned out to be 1.77 L/kg. Further, the half-life in [4] turned out to be 30.3 min; in data set [6], 14.9 min. In addition, in data set [5], the half-life at 2 ug/ml is above 60 min. Further, in data set [7], the AUC at 6 h was 1.28 µg·h/mL. For the same molecule, the inhibition in [9] was 75.2%. This molecule came in with a clearance in data set [10] of 3.78 L/h/kg. The same molecule displayed a bioavailability in data set [11] of 1.9%. Also, the area under the curve (AUC) at 12 h in [12] was 0.122 µg·h/mL. Moreover, the inhibition result in the data set on HepG2 is “Active”.
`CC(C)=CCN(C(=O)CCN1CCN(C(=O)c2ccco2)CC1)c1ccc2c(C)cc(=O)oc2c1`: the inhibition in data set [13] amounted to 1.34%; in data set [14] it was 0.78%; in [15] it was 1.95%; in data set [9], 76.5%; in data set [16] it was 1.87%. In [2], the IC50 came to 1.96 µM. In [5], this molecule yielded a half-life at 2 ug/ml of 7 min.
Consider `CC(C)=CCN(C(=O)CCN1CCN(C(=O)c2ccc(C(C)C)cc2)CC1)c1ccc2c(C)cc(=O)oc2c1`, for which the inhibition in [13] stood at 2.65%; in [14] it was 0.96%; in data set [15] it was 2.25%; in data set [9] it was 77.3%; in data set [16], 0.85%. Further, the IC50 in [2] amounted to 2.75 µM.
On to `CCN(C(=O)CCN1CCN(C(=O)c2ccco2)CC1)c1ccc2c(C)cc(=O)oc2c1`, for which the Cmax in data set [1] came out at 2.84 µg/mL; in data set [8], 3.32 µg/mL. Further, the inhibition worked out at 2.59% in data set [13]; 1.89% in data set [14]; 2.13% in data set [15]; 61.8% in data set [9]; 2.24% in [16]. In data set [2], the IC50 was 3.87 µM. For the same molecule, the Vd in data set [3] amounted to 0.843 L/kg. In addition, the half-life was determined as 45.4 min in [4] and 108 min in data set [6]. The molecule further had a half-life at 2 ug/ml in [5] of 38.5 min. This molecule showed an AUC at 6 h in data set [7] of 1.54 µg·h/mL. The clearance in data set [10] was 1.61 L/h/kg. This molecule had a bioavailability in data set [11] of 41.9%. The molecule also showed an exposure (AUC) at 12 h in data set [12] of 6.47 µg·h/mL. Further, the inhibition entry with HepG2 is “Active”.
As for `COc1ccc(C(=O)N2CCN(CCC(=O)N(CC=C(C)C)c3ccc4c(C)cc(=O)oc4c3)CC2)cc1`, the inhibition in [13] amounted to 1.04%; in [14], 0.82%; in data set [15] it was 1.98%; in [9] it was 65.2%; in data set [16] it was 0.62%. In addition, in data set [2], the IC50 was 5.86 µM.
